Measured values taken from US10501441B2, “Substituted imidazolylcarboxamides as pesticides” (BAYER CROPSCIENCE AKTIENGESELLSCHAFT, priority 2016, dated 2019).
Where two headings read alike, the source gives them in different places. One block for each molecule: values may come before it.

Key:
[1] = log P by reversed-phase HPLC (C18), EEC directive 79/831 Annex V.A8, neutral range; format: physicochemical; conditions: pH 7.8; for chromatographic logP: reversed-phase HPLC column (C18), read-out: Logp [n]
Experimental: a) The log P values reported in the tables and preparation examples above were determined in accordance with EEC directive 79/831 Annex V.A8 by HPLC (High Performance Liquid Chromatography) using a reversed-phase column (C18). Temperature 43° C. The calibration is effected with unbranched alkan-2-ones (having 3 to 16 carbon atoms), for which the log P values are known. […] The log P values for the acidic range (as log P [a]) and/or for the neutral range (as log P [n]) were stated in the tables and preparation examples above.

Myzus persicae [2] = assay: Myzus persicae - spray test (MYZUPE); format: in vivo; conditions: for Emax at 100 g/ha / pest or weed control at 500 g/ha: Myzus persicae; for Emax at 100 g/ha: MYZUPE, 100 g of ai/ha, read-out: % efficacy; for pest or weed control at 500 g/ha: foliar, read-out: efficacy (aphids killed); for pest or weed control at 500 g/ha / efficacy (aphids killed): Chinese cabbage leaf discs, after 5-6 days, 500 g/ha
Experimental: Myzus persicae—Spray Test
Solvents: 78 parts by weight of acetone • • 1.5 parts by weight of dimethylformamide
(§1) Emulsifier: alkylaryl polyglycol ether
After 5-6 days, the efficacy in % is determined. 100% means that all the aphids have been killed; 0% means that no aphids have been killed.
Myzus persicae—Spray Test (MYZUPE)
(§2) Solvents: 78.0 parts by weight of acetone • • 1.5 parts by weight of dimethylformamide
(§3) After the desired period of time (dat), the efficacy in % is determined. 100% means that all the aphids have been killed; 0% means that no aphids have been killed.

Tetranychus urticae = Tetranychus urticae - spray test, OP-resistant (TETRUR); format: in vivo; conditions: for Emax at 500 g/ha: Tetranychus urticae, 144 h, TETRUR, 6 dat, read-out: % efficacy; for efficacy (spider mites killed): 500 g/ha, bean leaf discs, after 6 days
Experimental: Tetranychus urticae—Spray Test, OP-Resistant
as §2, §1
After 6 days, the efficacy in % is determined. 100% means that all the spider mites have been killed; 0% means that no spider mites have been killed.
Tetranychus urticae—Spray Test; OP Resistant (TETRUR)
After the desired period of time (dat), the efficacy in % is determined. 100% means that all the spider mites have been killed; 0% means that none of the spider mites have been killed.

Myzus persicae [3] = assay: Myzus persicae - oral test (MYZUPE O); format: in vivo; conditions: for Emax at 0.8 ppm / Emax at 4 ppm / pest or weed control at 20 ppm: Myzus persicae, po, 120 h; for Emax at 0.8 ppm / Emax at 4 ppm: MYZUPE O, 5 dat, read-out: % efficacy; for pest or weed control at 20 ppm / efficacy (aphids killed): after 5 days, 20 ppm; for pest or weed control at 20 ppm: read-out: efficacy (aphids killed)
Experimental: Solvent: 100 parts by weight of acetone
50 μl of the active compound preparation are transferred into microtitre plates and made up to a final volume of 200 μl with 150 μl of IPL41 insect medium (33%+15% sugar). Subsequently, the plates are sealed with parafilm, which a mixed population of green peach aphids (Myzus persicae) within a second microtitre plate is able to puncture and imbibe the solution through it.
After 5 days, the efficacy in % is determined. 100% means that all the aphids have been killed; 0% means that no aphids have been killed.
Myzus persicae—Oral Test (MYZUPE O)
as §3

Boophilus microplus = Boophilus microplus - injection test; format: in vivo; conditions: 20 μg/animal, engorged adult female cattle ticks, after 7 days
Experimental: Boophilus microplus—Injection Test
Solvent: dimethyl sulphoxide
To produce a suitable preparation of active compound, 10 mg of active compound are mixed with 0.5 ml of solvent and the concentrate is diluted with solvent to the desired concentration.
1 μl of the active compound solution is injected into the abdomen of 5 engorged adult female cattle ticks (Boophilus microplus). The animals are transferred into dishes and kept in a climate-controlled room.
Efficacy is assessed after 7 days by laying of fertile eggs. Eggs which are not visibly fertile are stored in a climate-controlled cabinet until the larvae hatch after about 42 days. An efficacy of 100% means that none of the ticks has laid any fertile eggs; 0% means that all the eggs are fertile.

[4] = neutral range, HPLC C18, 43° C.

Logp [n] [1, 4]: 1.57
Compound: CSc1ccn(-c2ncc(C(=O)N(C)c3cccnc3)n2C)n1 [I-1-012]
efficacy (aphids killed) (Myzus persicae [2]): 90%
efficacy (aphids killed) (Myzus persicae [3]): 100%

Logp [n] [1, 4]: 2.09
Compound: CCN(C(=O)c1cnc(-n2cc(C(F)(F)F)cn2)n1C)c1cccnc1 [I-1-014]
efficacy (aphids killed) (Myzus persicae [2]): 90%
efficacy (aphids killed) (Myzus persicae [3]): 100%

Logp [n] [1, 4]: 1.87
Compound: CC1CCN(c2ncc(C(=O)N(C)c3cccnc3)n2C)CC1 [I-1-016]
efficacy (aphids killed) (Myzus persicae [2]): 90%
efficacy (aphids killed) (Myzus persicae [3]): 100%

chromatographic logP [1, 4]: 1.16
Compound: CN(C(=O)c1cnc(N2CCC(C#N)CC2)n1C)c1cccnc1 [I-1-017]
Emax at 100 g/ha (Myzus persicae [2]; 120 h, 5 dat): 90%
pest or weed control at 500 g/ha (Myzus persicae [2]): 100%
pest or weed control at 20 ppm (Myzus persicae [3]): 100%
Emax at 0.8 ppm (Myzus persicae [3]): 100%
Emax at 4 ppm (Myzus persicae [3]): 100%

Logp [n] [1, 4]: 2.21
Compound: CC1CC(C)CN(c2ncc(C(=O)N(C)c3cccnc3)n2C)C1 (centres unmarked) [I-1-020]
efficacy (aphids killed) (Myzus persicae [2]): 100%
efficacy (aphids killed) (Myzus persicae [3]): 100%

Logp [n] [1, 4]: 1.29
Compound: Cc1cnn(-c2ncc(C(=O)N(C)c3cccnc3)n2C)c1 [I-1-021]
efficacy (aphids killed) (Myzus persicae [2]): 100%
efficacy (aphids killed) (Myzus persicae [3]): 100%

Logp [n] [1, 4]: 1.42
Compound: Cc1cn(-c2ncc(C(=O)N(C)c3cccnc3)n2C)nc1C [I-1-023]

Logp [n] [1, 4]: 1.18
Compound: Cc1ccn(-c2ncc(C(=O)N(C)c3cccnc3)n2C)n1 [I-1-024]

Logp [n] [1, 4]: 1.17
Compound: CN(C(=O)c1cnc(-n2cnc(Cl)n2)n1C)c1cccnc1 [I-1-026]

Logp [n] [1, 4]: 1.5
Compound: CN(C(=O)c1cnc(-n2cc3c(n2)CCC3)n1C)c1cccnc1 [I-1-027]

Logp [n] [1, 4]: 0.78
Compound: CN(C(=O)c1cnc(-n2ncc(C#N)c2N)n1C)c1cccnc1 [I-1-028]

Logp [n] [1, 4]: 1.53
Compound: CCN(C(=O)c1cnc(-n2ccc(C#N)n2)n1C)c1cccnc1 [I-1-029]

Logp [n] [1, 4]: 1.84
Compound: CC(C)c1cnn(-c2ncc(C(=O)N(C)c3cccnc3)n2C)c1 [I-1-030]

Logp [n] [1, 4]: 1.22
Compound: CN(C(=O)c1cnc(-n2cnc(C#N)n2)n1C)c1cccnc1 [I-1-031]
efficacy (laying of fertile eggs) (Boophilus microplus): 80%

Second part, the molecule before the results:

Compound: CN(C(=O)c1cnc(Cl)n1C)c1cccnc1 [2-Chloro-N, 1-dimethyl-N-(pyridin-3-yl)-1H-imidazole-5-carboxamide]
chromatographic logP [1, 4]: 0.88

Compound: O=C(Nc1cccnc1)c1c[nH]cn1 [Ex. No. 13 WO2011/009804, reference compound]
Emax at 100 g/ha (Myzus persicae [2]; 144 h, 6 dat): 0%
Emax at 500 g/ha (Tetranychus urticae): 0%
Emax at 0.8 ppm (Myzus persicae [3]): 0%
Emax at 4 ppm (Myzus persicae [3]): 0%

Compound: Cc1nc(C(=O)Nc2cccnc2)c[nH]1 [Ex. No. 14 WO2011/009804, reference compound]
Emax at 100 g/ha (Myzus persicae [2]; 5/6 dat): 0%
Emax at 500 g/ha (Tetranychus urticae): 0%
Emax at 0.8 ppm (Myzus persicae [3]): 0%
Emax at 4 ppm (Myzus persicae [3]): 0%

Compound: CN(C(=O)c1cnc(-n2cccc2)n1C)c1cccnc1 [I-1-001]
Emax at 100 g/ha (Myzus persicae [2]; 144 h, 6 dat): 90%
pest or weed control at 500 g/ha (Myzus persicae [2]): 90%
chromatographic logP [1, 4]: 1.27
pest or weed control at 20 ppm (Myzus persicae [3]): 100%
Emax at 0.8 ppm (Myzus persicae [3]): 100%
Emax at 4 ppm (Myzus persicae [3]): 100%

Compound: CN(C(=O)c1cnc(-n2cccn2)n1C)c1cccnc1 [I-1-002]
efficacy (aphids killed) (Myzus persicae [2]): 90%
Logp [n] [1, 4]: 1.01
efficacy (aphids killed) (Myzus persicae [3]): 100%

Compound: CN(C(=O)c1cnc(-n2ccc(C#N)n2)n1C)c1cccnc1 [I-1-003]
efficacy (aphids killed) (Myzus persicae [2]): 90%
Logp [n] [1, 4]: 1.31
efficacy (aphids killed) (Myzus persicae [3]): 100%

Compound: CN(C(=O)c1cnc(-n2ccc(Cl)n2)n1C)c1cccnc1 [I-1-004]
Emax at 100 g/ha (Myzus persicae [2]; 144 h, 6 dat): 90%
pest or weed control at 500 g/ha (Myzus persicae [2]): 100%
chromatographic logP [1, 4]: 1.48
pest or weed control at 20 ppm (Myzus persicae [3]): 100%
Emax at 0.8 ppm (Myzus persicae [3]): 100%
Emax at 4 ppm (Myzus persicae [3]): 100%

Compound: CN(C(=O)c1cnc(-n2cc(Cl)cn2)n1C)c1cccnc1 [I-1-005]
efficacy (aphids killed) (Myzus persicae [2]): 90%
Logp [n] [1, 4]: 1.49
efficacy (aphids killed) (Myzus persicae [3]): 100%

Compound: CN(C(=O)c1cnc(-n2cc(C(F)(F)F)cn2)n1C)c1cccnc1 [I-1-006]
Emax at 100 g/ha (Myzus persicae [2]; 144 h, 6 dat): 100%
pest or weed control at 500 g/ha (Myzus persicae [2]): 100%
chromatographic logP [1, 4]: 1.82
pest or weed control at 20 ppm (Myzus persicae [3]): 100%
Emax at 0.8 ppm (Myzus persicae [3]): 100%

Compound: CN(C(=O)c1cnc(-n2ccc(C(F)(F)F)n2)n1C)c1cccnc1 [I-1-007, N,1-dimethyl-N-(pyridin-3-yl)-2-[3-(trifluoromethyl)-1H-pyrazol-1-yl]-1H-imidazole-5-carboxamide]
pest or weed control at 500 g/ha (Myzus persicae [2]): 100%
chromatographic logP [1, 4]: 1.87
pest or weed control at 20 ppm (Myzus persicae [3]): 100%

Compound: CN(C(=O)c1cnc(-n2cc(C#N)cn2)n1C)c1cccnc1 [I-1-008]
efficacy (aphids killed) (Myzus persicae [2]): 100%
Logp [n] [1, 4]: 1.14
efficacy (aphids killed) (Myzus persicae [3]): 100%

Compound: CN(C(=O)c1cnc(N2CCOCC2)n1C)c1cccnc1 [I-1-009, N,1-Dimethyl-2-(morpholin-4-yl)-N-(pyridin-3-yl)-1H-imidazole-5-carboxamide]
Emax at 100 g/ha (Myzus persicae [2]; 144 h, 6 dat): 70%
pest or weed control at 500 g/ha (Myzus persicae [2]): 100%
chromatographic logP [1, 4]: 0.85
efficacy (spider mites killed) (Tetranychus urticae): 90%
Emax at 500 g/ha (Tetranychus urticae): 90%
pest or weed control at 20 ppm (Myzus persicae [3]): 100%
Emax at 0.8 ppm (Myzus persicae [3]): 70%

Compound: CN(C(=O)c1cnc(-n2cnc(C(F)(F)F)c2)n1C)c1cccnc1 [I-1-010]
Emax at 100 g/ha (Myzus persicae [2]; 144 h, 6 dat): 70%
pest or weed control at 500 g/ha (Myzus persicae [2]): 100%
chromatographic logP [1, 4]: 1.38
pest or weed control at 20 ppm (Myzus persicae [3]): 100%
Emax at 0.8 ppm (Myzus persicae [3]): 100%
Emax at 4 ppm (Myzus persicae [3]): 100%

Compound: COc1ncn(-c2ncc(C(=O)N(C)c3cccnc3)n2C)n1 [I-1-011]
Emax at 100 g/ha (Myzus persicae [2]; 120 h, 5 dat): 70%
Emax at 0.8 ppm (Myzus persicae [3]): 90%
Emax at 4 ppm (Myzus persicae [3]): 90%

Compound: CSc1ncn(-c2ncc(C(=O)N(C)c3cccnc3)n2C)n1 [I-1-011]
efficacy (aphids killed) (Myzus persicae [2]): 100%
Logp [n] [1, 4]: 1.27
efficacy (aphids killed) (Myzus persicae [3]): 100%

Compound: CN(C(=O)c1cnc(N2CCCCC2)n1C)c1cccnc1 [I-1-013]
efficacy (aphids killed) (Myzus persicae [2]): 100%
Logp [n] [1, 4]: 1.53
efficacy (aphids killed) (Myzus persicae [3]): 100%

Compound: CCN(C(=O)c1cnc(-n2cc(C#N)cn2)n1C)c1cccnc1 [I-1-015]
pest or weed control at 500 g/ha (Myzus persicae [2]): 90%
chromatographic logP [1, 4]: 1.42
efficacy (spider mites killed) (Tetranychus urticae): 90%
Emax at 500 g/ha (Tetranychus urticae): 90%
pest or weed control at 20 ppm (Myzus persicae [3]): 100%
Emax at 0.8 ppm (Myzus persicae [3]): 100%
Emax at 4 ppm (Myzus persicae [3]): 100%

Compound: CN(C(=O)c1cnc(N2CCC(c3ccccc3)CC2)n1C)c1cccnc1 [I-1-018]
efficacy (aphids killed) (Myzus persicae [2]): 100%
Logp [n] [1, 4]: 2.38
efficacy (aphids killed) (Myzus persicae [3]): 100%

Compound: CN(C(=O)c1cnc(N2CCCC2)n1C)c1cccnc1 [I-1-019]
efficacy (aphids killed) (Myzus persicae [2]): 100%
Logp [n] [1]: 1.19
efficacy (aphids killed) (Myzus persicae [3]): 100%

Compound: CN(C(=O)c1cnc(-n2ccnc2)n1C)c1cccnc1 [I-1-025]
Logp [n] [1]: 0.56
